The record followed here is patent US20240226066A1, “CARDIOPROTECTION BY AUTOPHAGY INDUCTION AND METABOLIC REPROGRAMMING” (UNIVERSITE PARIS-SACLAY, priority 2021, published 2024).

Assay type in all cases: cell-based, rat
One assay concerns LC3II. Kind of assay: LC3 I/II conversion by western blot in RNVCs. The settings on record: 1 μM. The procedure:
FIG. 4E: LC3-I/II protein levels in the RNVCs. Data are presented as mean±SEM with single-factor ANOVA, and multiple Sidak comparisons. *, p<0.05, **, p<0.01 with respect to DMSO.
(§1) The H9C2 cells and RNVCs were detached in LB containing: 50 mM Tris, 150 mM NaCl, 1 mM EDTA, 0.5% deoxycholate, 1% Triton X 100, 0.1% SDS (pH 8.0). The cells were collected and placed on ice for 30 minutes. The cells were then centrifuged at 2000 g for 20 minutes at for 4° C. The supernatant was transferred to a new tube and stored on ice. The protein concentration was determined by BCA assay. The protein samples were diluted with sample buffer (2× Laemmli, Sigma), mixed, and heated for 5 minutes at 95° C. […] The images were recorded with a gel imaging system (Bio Rad). […]
(§2) Next, the hypothesis that the compounds could protect cardiac cells by activating autophagy, a catabolic process conserved in evolution that involves the degradation of damaged cytoplasmic components, was formulated. […] Then, the cells were treated with the hits and with H2O2 for 2 hours and their survival was analyzed 4 hours later by measuring LDH release (FIGS. 4B, 4C). […] In order to confirm the induction of autophagy by another approach, the RNVCs were transfected with a GFP-LC3 plasmid and the formation of the autophagosome was monitored 24 hours later. […]
In general terms: Immunoblotting shows a protein as a band on a membrane.

A further assay concerns RNVCs. Kind of assay: Autophagosome formation after GFP-LC3 plasmid transfection (fluorescence microscopy). The settings on record: GFP-LC3 transfected RNVCs. Here is the method:
FIG. 4D: after transfection of the plasmid GFP-LC3, the fluorescent green GFP-LC3 spots were visualized by fluorescence microscopy and quantified with ImageJ to verify autophagosome formation. Data are presented as mean±SEM with single-factor ANOVA, and multiple Sidak comparisons. ***, p<0.001 with respect to 0.01% DMSO.
On day 0, 4×10^5 neonatal cardiomyocytes were plated overnight in laminin-coated 35 mm culture dishes (10 μg/ml). On day 1, the cells were transfected with 1 μg of GFP-LC3 plasmid using the transfection reagent Lipofectamine® 2000 (1 μg of GFP-LC3 corresponds to 2.5 μl of transfection reagent), for 48 h, then the green fluorescence was detected with a Leica confocal microscope (SP5). The analyses were carried out with the ImageJ program (Wayne Rasband, National Institutes of Health, USA).
as §2

In another assay the test system is BCL-XL. In words: Western blot of BCL-XL expression in RNVCs. The settings on record: 6 h treatment. The procedure:
Levels of protein expression of BCL-2 (FIG. 3A and FIG. 3B) BXL-XL (FIG. 3C) and BAX (FIG. 3C), in the RNVCs after 6 h of treatment (FIG. 3A, FIG. 3C, FIG. 3D) or 24 h (FIG. 3B). Co., untreated cell control. Each experiment was reproduced at least three times. Representative western blotting images and quantification of three independent experiments are presented as mean±SEM with single-factor ANOVA, with multiple Sidak comparisons. *, p<0.05 with respect to DMSO.
as §1

Where only a bound is given, the exact number is not on record here.

For `O=C1NC(c2ccccc2)=N/C1=C\c1cc2ccccc2c2ccccc12` [SG6163F], the “increase in level of expression of LC3II” value in the assay on LC3II is given as more than 1.5 fold. In the assay with RNVCs, the formation of autophagosomes result is on record as “capable of causing the formation of autophagosomes”.
For `C[C@H]1O[C@@H](O[C@H]2[C@@H](O)C[C@H](O[C@H]3[C@@H](O)CC(O[C@H]4CC[C@@]5(C)[C@H](CC[C@@H]6[C@@H]5C[C@@H](O)[C@]5(C)[C@@H](C7=CC(=O)OC7)CC[C@]65O)C4)O[C@@H]3C)O[C@@H]2C)C[C@H](O)[C@@H]1O` (stereo partly drawn) [digoxin], in the assay with BCL-XL, the “expression of BCL-XL” value is given as “caused a decrease”.
